Results on 35 compounds are retold here after patent publication US7585859B2, “PDE4B inhibitors and uses therefor” (Plexxikon, Inc., priority 2004, dated 2009).

Like-named read-outs stand apart in the source and are kept apart here.

Assay [1] has as its target T1, PDE4B: The catalytic domain of human PDE4B from S152-S528 (Homo sapiens, UniProt Q07343).
T1 construct: His6 (N); thrombin cleavage site (N); made in house; host or cells: E. coli
The experiment in a line: PDE4 IC50 determination by Scintillation Proximity Assay, PDE4B. Type of assay: biochemical. The protocol: (§1) IC50s were determined by Scintillation Proximity Assay (SPA). The principle of the assay is based on the fact that cAMP, the PDE4 substrate, binds weakly to Yittrium Silicate SPA beads, whereas AMP, the product of PDE4 hydrolysis binds strongly. Thus, the extent of PDE4 hydrolysis of a sample of [^3H]cAMP can be measured because only the
(§2) [^3H]AMP produced by PDE4 hydrolysis will bind to the SPA beads and produce a scintillation signal.
(§3) PDE4 enzymes used for IC50 assays were:
(§4) Enzyme was stored in 50% glycerol at −20°.
(§5) In addition to the compound dilutions, each assay plate contained control wells with 1 μl of DMSO (to define 0% enzyme inhibition) or 1 μl of 200 μM roflumilast (to define 100% enzyme inhibition). […] Next, 10 μl of PDE4 enzyme in assay buffer was added and the plates were shaken for 30 s. at 1000 rpm to start the cAMP hydrolysis reaction. The concentrations of enzyme used were: PDE4B, 80 ng/ml; PDE4D, 4 ng/ml; PDE4B2, 2.5 μl of 50% glycerol stock/ml; PDE4D5 0.083 μl of 50% glycerol stock/ml. Assay plates were covered and incubated for 30 min. at 30°. […] The assay plates were covered with clear plastic film, centrifuged for 1 min. at 1000 RPM to settle the SPA beads, and counted using a Wallac TriLux scintillation counter. IC50's were calculated from the raw assay data by non-linear regression curve fitting using the Assay Explorer software package from MDL.
(In general: In a scintillation proximity assay essentially only radioactivity close to the scintillant gives light.)

The target of another assay is T2, PDE4D (Homo sapiens, UniProt Q08499).
T2 construct: PDE4D: The catalytic domain of human PDE4B from S3 16-V692; His6 (N); thrombin cleavage site (N); made in house; host or cells: E. coli
T2 sequence (Q08499 380-756): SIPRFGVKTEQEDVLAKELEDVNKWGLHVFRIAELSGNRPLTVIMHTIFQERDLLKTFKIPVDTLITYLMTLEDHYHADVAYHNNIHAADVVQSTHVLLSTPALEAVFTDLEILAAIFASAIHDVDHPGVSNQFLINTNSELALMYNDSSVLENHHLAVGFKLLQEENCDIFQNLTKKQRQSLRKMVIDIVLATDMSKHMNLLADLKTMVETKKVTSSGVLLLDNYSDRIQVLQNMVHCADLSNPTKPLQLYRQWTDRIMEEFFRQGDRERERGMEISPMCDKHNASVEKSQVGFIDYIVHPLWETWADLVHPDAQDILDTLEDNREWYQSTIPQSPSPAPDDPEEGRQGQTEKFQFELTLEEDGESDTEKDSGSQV
Briefly: PDE4 IC50 determination by Scintillation Proximity Assay, PDE4D. Type of assay: biochemical. The method, then: as §1, §2, §3, §4, §5

Where [2] appears, read: Table 1B, Formula I compounds, read-out: IC50 PDE4B.
The mark [3] stands for this setting: second part of Table 2B (2-23 to 2-103), column 5, column is PDE4D in first part, read-out: IC 50 vs. indicated assay h TNFα.
[4] abbreviates: Table 3A, Formula III compounds, read-out: IC50 PDE4B.

T1 sequence (Q07343 with tags, fused parts or gaps): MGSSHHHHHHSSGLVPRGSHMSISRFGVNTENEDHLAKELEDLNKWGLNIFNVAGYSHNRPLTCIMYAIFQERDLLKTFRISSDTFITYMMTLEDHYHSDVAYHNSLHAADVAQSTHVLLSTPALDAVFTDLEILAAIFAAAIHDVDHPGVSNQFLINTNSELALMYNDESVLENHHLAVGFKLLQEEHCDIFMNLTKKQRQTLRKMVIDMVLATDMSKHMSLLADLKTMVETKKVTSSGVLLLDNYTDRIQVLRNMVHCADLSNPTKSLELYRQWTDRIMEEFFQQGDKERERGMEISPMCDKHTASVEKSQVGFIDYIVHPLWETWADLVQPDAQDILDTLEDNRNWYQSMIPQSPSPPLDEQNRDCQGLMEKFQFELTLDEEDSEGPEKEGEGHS

Consider “3-Amino-2-(4-ethyl- phenylcarbamoyl)-6-oxo- 6,7-dihydro- thieno[2.3-b]pyridine- 5-carboxylic acid [Compound 1-6]”, for which the IC50 in assay [1] (setting [2]) is above 10 µM.
Take `Cc1cc(=O)[nH]c2sc(C(=O)c3ccc(Br)cc3)c(N)c12` [Compound 1-3, 3-Amino-2-(4-bromo-benzoyl)-4-methyl-7H-thieno[2,3-b]pyridin-6-one]: the IC50 in assay [1] (setting [2]) was above 10 µM.
Same read-out and setting: the figure for `CC(=O)C1=C(C)Nc2sc(C(N)=O)c(N)c2C1c1ccc(Cl)cc1` (centres unmarked) [Compound 1-5, 5-Acetyl-3-amino-4-(4-chloro-phenyl)-6-methyl-4,7-dihydro-thieno[2,3-b]pyridine-2-carboxylic acid amide] is below 10 µM; for `CC(=O)C1=C(C)Nc2sc(C(N)=O)c(N)c2C1c1ccco1` (centres unmarked) [Compound 1-7, 5-Acetyl-3-amino-4-furan-2-yl-6-methyl-4,7-dihydro-thieno[2,3-b]pyridine-2-carboxylic acid amide] it is above 10 µM.
The same measure, in the same setting: the figure for `CCc1ccc(C(=O)c2sc3c(c2N)C(c2cccnc2)C(C(C)=O)=C(C)N3)cc1` (centres unmarked) [Compound 1-8, 1-[3-Amino-2-(4-ethyl-benzoyl)-6-methyl-4-pyridin-3-yl-4,7-dihydro-thieno[2,3-b]pyridin-5-yl]-ethanone] is below 10 µM.
Same read-out and setting: the figure for `CC(=O)C1=C(C)Nc2sc(C(=O)c3cccc([N+](=O)[O-])c3)c(N)c2C1c1cccnc1` (centres unmarked) [Compound 1-9, 1-[3-Amino-6-methyl-2-(3-nitro-benzoyl)-4-pyridin-3-yl-4,7-dihydro-thieno[2,3-b]pyridin-5-yl]-ethanone] is below 10 µM.
`NC(=O)c1sc2[nH]c(=O)c(C(=O)O)cc2c1N` [Compound 1-10, 3-Amino-2-carbamoyl-6-oxo-6,7-diliydro-thieno[2,3-b]pyridine-5-carboxylic acid]: in assay [1] (setting [2]), the IC50 is above 10 µM.
In the case of `Cc1ccc(C2CC(=O)Nc3sc(C(N)=O)c(N)c32)cc1` (centres unmarked) [Compound 1-11, 3-Amino-6-oxo-4-p-tolyl-4,5,6,7-tetrahydro-thieno[2,3-b]pyridine-2-carboxylic acid amide], the IC50 in assay [1] (setting [2]) is above 10 µM.
Same read-out and setting: the figure for `CCNc1sc(C(=O)OC)c(N)c1C#N` [Compound 1-13, 3-Amino-4-cyano-5-ethylamino-thiophene-2-carboxylic acid methyl ester] is below 10 µM; for `NC(=O)c1sc(Nc2ccccc2)c(-c2nc3ccccc3[nH]2)c1N` [Compound 1-14, 3-Amino-4-(1H-benzoimidazol-2-yl)-5-phenylamino-thiophene-2-carboxylic acid amide] it is below 10 µM.
Turning to `Cc1cc(=O)[nH]c2sc(C(=O)c3ccc(Cl)c(Cl)c3)c(N)c12` [Compound 1-27, 3-Amino-2-(3,4-dichloro-benzoyl)-4-methyl-7H-thioeno[2,3-b]pyridin-6-one], the IC50 on PDE4D (Table 1B, Formula I compounds, read-out: IC50 PDE4D) is above 10 µM.
For the compound `COc1ccc(C(=O)c2sc(Nc3ccc(Oc4ccccc4)cc3)c(C#N)c2N)cc1` [Compound 1-174], the IC50 in assay [1] (setting [2]) is below 10 µM.
On the same count and under the same terms, in the case of `N#Cc1c(NC2CCCC2)sc(C(=O)c2cc(C(=O)N3CCOCC3)no2)c1N` [Compound 1-175, 4-Amino-2-cyclopentylamino-5-[3-(morpholine-4-carbonyl)-isoxazole-5-carbonyl]-thiophene-3-carbonitrile] it was below 10 µM; in that of `N#Cc1c(NC2CCCC2)sc(C(=O)c2ccc(-c3ccccc3)cc2)c1N` [Compound 1-188, 4-Amino-5-(biphenyl-4-carbonyl)-2-cyclopentylamino-thiophene-3-carbonitrile], below 10 µM.
Same read-out and setting: the figure for `N#Cc1c(Nc2ccccc2Cl)sc(C(=O)c2ccc(Oc3ccccc3)cc2)c1N` [Compound 1-194, 4-Amino-2-(2-chloro-phenylamino)-5-(4-phenoxy-benzoyl)-thiophene-3-carbonitrile] is below 10 µM.
For the compound `Nc1nc(Nc2ccc(Oc3ccccc3)cc2)sc1C(=O)c1cc(-c2ccccc2)no1` [Compound 2-8, [4-Amino-2-(4-phenoxy-phenylamino)-thiazol-5-yl]-(3-phenyl-isoxazol-5-yl)-methanone], on PDE4D (first part of Table 2B (2-1 to 2-22), read-out: IC 50 vs. indicated assay PDE4D), the IC50 is above 10 µM.
As for `Nc1nc(Nc2c(F)cccc2F)sc1C(=O)c1ccccc1` [Compound 2-44, [4-Amino-2-(2,6-difluoro-phenylamino)-thiazol-5-yl]-phenyl-methanone], the IC50 in assay [1] (second part of Table 2B (2-23 to 2-103), column 3, column is PDE4B in first part, read-out: IC 50 vs. indicated assay h TNFα) was below 10 µM.
On to `Nc1nc(Nc2ccc(Oc3ccccc3)cc2)sc1C(=O)c1ccc(Oc2ccccc2)cc1` [Compound 2-47, [4-Amino-2-(4-phenoxy-phenylamino)-thiazol-5-yl]-(4-phenoxy-phenyl)-methanone], for which the IC50 on PDE4D (setting [3]) was above 10 µM.
The same measure, in the same setting: the figure for `Nc1nc(Nc2ccc(Oc3ccccc3)cc2)sc1C(=O)c1ccc(OC(F)F)cc1` [Compound 2-61, [4-Amino-2-(4-phenoxy-phenylamino)-thiazol-5-yl]-(4-difluoromethoxy-phenyl)-methanone] is above 10 µM.
As for `CSc1nccc(-c2ccc(S(=O)(=O)Nc3ccc(Br)c4cccnc34)s2)n1` [Compound 3-17, 5-(2-Methylsulfanyl-pyrimidin-4-yl)-thiophene-2-sulfonic acid (5-bromo-quinolin-8-yl)-amide], the IC50 in assay [1] (setting [4]) was below 10 µM.
Turning to `COc1ccc(NS(=O)(=O)c2ccc(-c3ccnc(SC)n3)s2)c2ncccc12` [Compound 3-18, 5-(2-Methylsulfanyl-pyrimidin-4-yl)-thiophene-2-sulfonic acid (5-methoxy-quinolin-8-yl)-amide], in assay [1] (setting [4]), the IC50 was below 10 µM.
On the same count and under the same terms, in the case of `CSc1ncc(-c2ccc(S(=O)(=O)N(C)c3cccc4cccnc34)s2)cn1` [Compound 3-19, 5-(2-Methylsulfanyl-pyrimidin-5-yl)-thiophene-2-sulfonic acid methyl-quinolin-8-yl-amide] it was below 10 µM; in that of `O=S(=O)(Nc1ccc(Br)c2cccnc12)c1ccc(-c2cnco2)s1` [Compound 3-35, 5-Oxazol-5-yl-thiophene-2-sulfonic acid (5-bromo-quinolin-8-yl)-amide], below 10 µM; in that of `COc1ccc(NS(=O)(=O)c2ccc(-c3cnco3)s2)c2ncccc12` [Compound 3-36, 5-Oxazol-5-yl-thiophene-2-sulfonic acid (5-methoxy-quinolin-8-yl)-amide], below 10 µM.
In the case of `COc1cc(NS(=O)(=O)c2c(Cl)cccc2Cl)c2ncccc2c1` [Compound 3-50, 2,6-Dichloro-N-(6-methoxy-quinolin-8-yl)-benzenesulfonamide], the IC50 in assay [1] (setting [4]) was above 10 µM.
On to `O=S(=O)(Nc1cc(Br)cc2cccnc12)c1ccccc1` [Compound 3-59, N-(6-Bromo-quinolin-8-yl)-benzenesulfonamide], for which the IC50 in assay [1] (setting [4]) is above 10 µM.
On the same count and under the same terms, the figure for `COc1ccc(Br)cc1S(=O)(=O)Nc1cccc2cccnc12` [Compound 3-60, 5-Bromo-2-methoxy-N-quinolin-8-yl-benzenesulfonamide] is above 10 µM; for `O=S(=O)(Nc1cccc2cccnc12)c1cccc(Nc2ccncn2)c1` [Compound 3-61, 3-(Pyrimidin-4-ylamino)-N-quinolin-8-yl-benzenesulfonamide] it is below 10 µM.
The same measure, in the same setting: the figure for `CSc1nc(Nc2ccc(S(=O)(=O)Nc3cccc4cccnc34)cc2)c2ccccc2n1` [Compound 3-62, 4-(2-Methylsulfanyl-quinazolin-4-ylamino)-N-quinolin-8-yl-benzenesulfonamide] is below 10 µM; for `CSc1nc(Nc2cccc(S(=O)(=O)Nc3cccc4cccnc34)c2)c2ccccc2n1` [Compound 3-63, 3-(2-Methylsulfanyl-quinazolin-4-ylamino)-N-quinolin-8-yl-benzenesulfonamide] it is below 10 µM; for `O=C(c1ccncc1)c1ccc(S(=O)(=O)Nc2cccc3cccnc23)cc1` [Compound 3-64, 4-(Pyridine-4-carbonyl)-N-quinolin-8-yl-benzenesulfonamide] it is below 10 µM.
On the same count and under the same terms, the figure for `O=S(=O)(Nc1cccc2cccnc12)c1ccc(N2CCOCC2)cc1` [Compound 3-65, 4-Morpholin-4-yl-N-quinolin-8-yl-benzenesulfonamide] is below 10 µM.
`Cc1nccc(-c2cccc(S(=O)(=O)Nc3ccc(Br)c4cccnc34)c2)n1` [Compound 3-67, N-(5-Bromo-quinolin-8-yl)-3-(2-methyl-pyrimidin-4-yl)-benzenesulfonamide]: the IC50 in assay [1] (setting [4]) is above 10 µM.
Same read-out and setting: the figure for `COc1ccc(NS(=O)(=O)c2cccc(-c3ccnc(C)n3)c2)c2ncccc12` [Compound 3-68, N-(5-Methoxy-quinolin-8-yl)-3-(2-methyl-pyrimidin-4-yl)-benzenesulfonamide] is below 10 µM; for `O=S(=O)(Nc1cccc2cccnc12)c1ccc(Oc2ccccc2)nc1` [Compound 3-69, 6-Phenoxy-pyridine-3-sulfonic acid quinolin-8-ylamide] it is above 10 µM.
